Data published in patent publication US9567342B2, “Certain protein kinase inhibitors” (SHANGHAI FOCHON PHARMACEUTICAL CO., LTD., priority 2012, dated 2017).

tested on: SU-DHL-1 cells; assay: Inhibition activity of cell proliferation (CCK-8 assay); format: cell-based; conditions: Homo sapiens, 72 h exposure
Description: SU-DHL-1 cells were seeded in 96-well tissue culture plates. On the next day, cells were exposed to various concentrations of compounds and further cultured for 72 h. Cell proliferation was then determined using Cell Counting Kit-8 [(CCK-8), Dojindo]assay. Briefly, add 10 μL of the CCK-8 solution to each well of the plate. Incubate the plate for 1-4 hours in the incubator. Measure the absorbance at 450 nm using a multi-well spectrophotometer (SpectraMAX 190, Molecular Devices). The inhibition rate (%) was calculated using the following equation: [1−(A450 Compound/A450 Control)]×100%. IC50 values were calculated according to inhibition curve by four-parameter fit.

`Cc1cc(Nc2nc(Nc3ccccc3S(=O)(=O)C(C)C)c3c(C)n[nH]c3n2)c2c(c1C1CCNCC1)CCO2` [Example 1] and `Cc1cc(Nc2nc(Nc3ccccc3S(=O)(=O)C(C)C)c3c(C)n[nH]c3n2)c2c(c1C1CCN(C)CC1)CCO2` [Example 2, N-4-(2-(isopropylsulfonyl)phenyl)-3-methyl-N-6-(5-methyl-4-(1-methylpiperidin-4-yl)-2,3-dihydrobenzofuran-7-yl)-1H-pyrazolo[3,4-d]pyrimidine-4,6-diamine] are within 1.5-fold of each other in IC50: 25.5 nM for the first, 18.9 nM for the second.

Compared with `Cc1cc(Nc2nc(Nc3ccccc3S(=O)(=O)C(C)C)c3c(C)n[nH]c3n2)c2c(c1C1CCNCC1)C[C@@H](C)O2` [Example 3, (R)—N-6-(2,5-dimethyl-4-(piperidin-4-yl)-2,3-dihydrobenzofuran-7-yl)-N-4-(2-(isopropylsulfonyl)-phenyl)-3-methyl-1H-pyrazolo[3,4-d]pyrimidine-4,6-diamine], `Cc1cc(Nc2nc(Nc3ccccc3S(=O)(=O)C(C)C)c3c(C)n[nH]c3n2)c2c(c1C1CCNCC1)C[C@H](C)O2` [Example 5] is 5-fold lower in IC50: 61 nM for the first, 12.1 nM for the second. The second is the more potent here.

Going from `Cc1cc(Nc2nc(Nc3ccccc3S(=O)(=O)C(C)C)c3c(C)n[nH]c3n2)c2c(c1C1CCN(C)CC1)C[C@H](C)O2` [Example 6] to `Cc1cc(Nc2ncc(Cl)c(Nc3ccccc3S(=O)(=O)C(C)C)n2)c2c(c1C1CCN(C)CC1)C[C@@H](C)O2` [Example 10, (R)-5-chloro-N-2-(2,5-dimethyl-4-(1-methylpiperidin-4-yl)-2,3-dihydrobenzofuran-7-yl)-N-4-(2-(isopropylsulfonyl)phenyl)pyrimidine-2,4-diamine], the IC50 falls from 34.6 nM to under 0.2 nM. The second is the more potent here.

First: Cc1cc(Nc2nc(Nc3ccccc3S(=O)(=O)C(C)C)c3c(C)n[nH]c3n2)c2c(c1C1CCNCC1)CC(CO)O2 (stereo not drawn) [Example 7, (7-(4-(2-(isopropylsulfonyl)phenylamino)-3-methyl-1H-pyrazolo[3,4-d]pyrimidin-6-ylamino)-5-methyl-4-(piperidin-4-yl)-2,3-dihydrobenzofuran-2-yl)methanol]
Second: COCC1Cc2c(c(Nc3nc(Nc4ccccc4S(=O)(=O)C(C)C)c4c(C)n[nH]c4n3)cc(C)c2C2CCNCC2)O1 (stereo not drawn) [Example 8, N-4-(2-(isopropylsulfonyl)phenyl)-N-6-(2-(methoxymethyl)-5-methyl-4-(piperidin-4-yl)-2,3-dihydrobenzofuran-7-yl)-3-methyl-1H-pyrazolo[3,4-d]pyrimidine-4,6-diamine]
The IC50 of the first is 5.7-fold higher: 298 nM for the first, 52.7 nM for the second.

First: Cc1cc(Nc2ncc(Cl)c(Nc3ccccc3S(=O)(=O)C(C)C)n2)c2c(c1C1CCNCC1)C[C@@H](C)O2 [Example 9, (R)-5-chloro-N-2-(2,5-dimethyl-4-(piperidin-4-yl)-2,3-dihydrobenzofuran-7-yl)-N-4-(2-(isopropylsulfonyl)phenyl)pyrimidine-2,4-diamine]
Second: Cc1cc(Nc2ncc(Cl)c(Nc3ccccc3S(=O)(=O)C(C)C)n2)c2c(c1C1CCNCC1)C[C@H](C)O2 [Example 11, (S)-5-chloro-N-2-(2,5-dimethyl-4-(piperidin-4-yl)-2,3-dihydrobenzofuran-7-yl)-N-4-(2-(isopropylsulfonyl)phenyl)pyrimidine-2,4-diamine]
The IC50 of the first is higher: 98.3 nM for the first, under 4.1 nM for the second. The second is the more potent here.

Compared with `Cc1cc(Nc2ncc(Cl)c(Nc3ccccc3S(=O)(=O)C(C)C)n2)c2c(c1C1CCN(C)CC1)C[C@H](C)O2` [Example 12], `CC(=O)N1CCC(c2c(C)cc(Nc3ncc(Cl)c(Nc4ccccc4S(=O)(=O)C(C)C)n3)c3c2C[C@H](C)O3)CC1` [Example 15, (S)-1-(4-(7-((5-chloro-4-((2-(isopropylsulfonyl)phenyl)amino)pyrimidin-2-yl)amino)-2,5-dimethyl-2,3-dihydrobenzofuran-4-yl)piperidin-1-yl)ethanone] is 9.6-fold higher in IC50: 4 nM for the first, 38.2 nM for the second. The first is the more potent here.

First: Cc1cc(Nc2ncc(Cl)c(Nc3ccccc3S(=O)(=O)C(C)C)n2)c2c(c1C1CCNCC1)CCO2 [Example 13]
Second: Cc1cc(Nc2ncc(Cl)c(Nc3ccccc3S(=O)(=O)C(C)C)n2)c2c(c1C1CCN(C)CC1)CCO2 [Example 14]
The IC50 of the first is lower: under 4.1 nM for the first, 6.6 nM for the second. The first is the more potent here.

Going from `CC(=O)N1CCC(c2c(C)cc(Nc3ncc(Cl)c(Nc4ccccc4S(=O)(=O)C(C)C)n3)c3c2C[C@@H](C)O3)CC1` [Example 16, (R)-1-(4-(7-((5-chloro-4-((2-(isopropylsulfonyl)phenyl)amino)pyrimidin-2-yl)amino)-2,5-dimethyl-2,3-dihydrobenzofuran-4-yl)piperidin-1-yl)ethanone] to `Cc1cc(Nc2ncc(Cl)c(Nc3ccccc3S(=O)(=O)C(C)C)n2)c2c(c1C1CCN(C(=O)[C@H](C)N)CC1)C[C@H](C)O2` [Example 21, (S)-2-amino-1-(4-((S)-7-((5-chloro-4-((2-(isopropylsulfonyl)phenyl)amino)pyrimidin-2-yl)amino)-2,5-dimethyl-2,3-dihydrobenzofuran-4-yl)piperidin-1-yl)propan-1-one], the IC50 rises from 11.6 nM to 68.6 nM (5.9-fold).

Going from `Cc1cc(Nc2ncc(Cl)c(Nc3ccccc3S(=O)(=O)C(C)C)n2)c2c(c1C1CCN(S(C)(=O)=O)CC1)C[C@H](C)O2` [Example 17, (S)-5-chloro-N-2-(2,5-dimethyl-4-(1-(methylsulfonyl)piperidin-4-yl)-2,3-dihydrobenzofuran-7-yl)-N-4-(2-(isopropylsulfonyl)phenyl)pyrimidine-2,4-diamine] to `Cc1cc(Nc2ncc(Cl)c(Nc3ccccc3S(=O)(=O)C(C)C)n2)c2c(c1C1CCN(S(C)(=O)=O)CC1)C[C@@H](C)O2` [Example 18], the IC50 falls from 68.5 nM to 15.9 nM (4.3-fold).

Going from `Cc1cc(Nc2ncc(Cl)c(Nc3ccccc3S(=O)(=O)C(C)C)n2)c2c(c1C1CCN(CC(=O)O)CC1)C[C@H](C)O2` [Example 19, (S)-2-(4-(7-((5-chloro-4-((2-(isopropylsulfonyl)phenyl)amino)pyrimidin-2-yl)amino)-2,5-dimethyl-2,3-dihydrobenzofuran-4-yl)piperidin-1-yl)acetic acid] to `Cc1cc(Nc2ncc(Cl)c(Nc3ccccc3S(=O)(=O)C(C)C)n2)c2c(c1C1CCN(CC(=O)O)CC1)C[C@@H](C)O2` [Example 20, (R)-2-(4-(7-((5-chloro-4-((2-(isopropylsulfonyl)phenyl)amino)pyrimidin-2-yl)amino)-2,5-dimethyl-2,3-dihydrobenzofuran-4-yl)piperidin-1-yl)acetic acid], the IC50 rises from 4.9 nM to 61.9 nM (13-fold). The first is the more potent here.

Compared with `Cc1cc(Nc2ncc(Cl)c(Nc3ccccc3S(=O)(=O)C(C)C)n2)c2c(c1C1CCN(C(=O)[C@H](C)N)CC1)C[C@@H](C)O2` [Example 22, (S)-2-amino-1-(4-((R)-7-((5-chloro-4-((2-(isopropylsulfonyl)phenyl)amino)pyrimidin-2-yl)amino)-2,5-dimethyl-2,3-dihydrobenzofuran-4-yl)piperidin-1-yl)propan-1-one], `Cc1cc(Nc2ncc(Cl)c(Nc3ccccc3S(=O)(=O)C(C)C)n2)c2c(c1C1CCN(C[C@@H](C)O)CC1)C[C@@H](C)O2` [Example 23, (R)-1-(4-((R)-7-((5-chloro-4-((2-(isopropylsulfonyl)phenyl)amino)pyrimidin-2-yl)amino)-2,5-dimethyl-2,3-dihydrobenzofuran-4-yl)piperidin-1-yl)propan-2-ol] is 7-fold lower in IC50: 86 nM for the first, 12.3 nM for the second.

First: Cc1cc(Nc2ncc(Cl)c(Nc3ccccc3S(=O)(=O)C(C)C)n2)c2c(c1C1CCN(C[C@H](C)O)CC1)C[C@@H](C)O2 [Example 24, (S)-1-(4-((R)-7-((5-chloro-4-((2-(isopropylsulfonyl)phenyl)amino)pyrimidin-2-yl)amino)-2,5-dimethyl-2,3-dihydrobenzofuran-4-yl)piperidin-1-yl)propan-2-ol]
Second: Cc1cc(Nc2ncc(Cl)c(Nc3ccccc3S(=O)(=O)C(C)C)n2)c2c(c1C1CCN(CC(N)=O)CC1)C[C@H](C)O2 [Example 25, (S)-2-(4-(7-((5-chloro-4-((2-(isopropylsulfonyl)phenyl)amino)pyrimidin-2-yl)amino)-2,5-dimethyl-2,3-dihydrobenzofuran-4-yl)piperidin-1-yl)acetamide]
The IC50 of the first is 4.4-fold lower: 8.3 nM for the first, 36.3 nM for the second.

First: Cc1cc(Nc2ncc(Cl)c(Nc3ccccc3S(=O)(=O)C(C)C)n2)c2c(c1C1CCN(CC(N)=O)CC1)C[C@@H](C)O2 [Example 26, (R)-2-(4-(7-((5-chloro-4-((2-(isopropylsulfonyl)phenyl)amino)pyrimidin-2-yl)amino)-2,5-dimethyl-2,3-dihydrobenzofuran-4-yl)piperidin-1-yl)acetamide]
Second: Cc1cc(Nc2ncc(Cl)c(Nc3ccccc3S(=O)(=O)C(C)C)n2)c2c(c1C1CCN(CC(=O)N(C)C)CC1)C[C@H](C)O2 [Example 27, (S)-2-(4-(7-((5-chloro-4-((2-(isopropylsulfonyl)phenyl)amino)pyrimidin-2-yl)amino)-2,5-dimethyl-2,3-dihydrobenzofuran-4-yl)piperidin-1-yl)-N,N-dimethylacetamide]
The IC50 of the first is 2.7-fold lower: 13.7 nM for the first, 37.2 nM for the second. The first is the more potent here.

First: Cc1cc(Nc2ncc(Cl)c(Nc3ccccc3S(=O)(=O)C(C)C)n2)c2c(c1C1CCN(CC(=O)N(C)C)CC1)C[C@@H](C)O2 [Example 28, (R)-2-(4-(7-((5-chloro-4-((2-(isopropylsulfonyl)phenyl)amino)pyrimidin-2-yl)amino)-2,5-dimethyl-2,3-dihydrobenzofuran-4-yl)piperidin-1-yl)-N,N-dimethylacetamide]
Second: COCCN1CCC(c2c(C)cc(Nc3ncc(Cl)c(Nc4ccccc4S(=O)(=O)C(C)C)n3)c3c2C[C@H](C)O3)CC1 [Example 31, (S)-5-chloro-N-4-(2-(isopropylsulfonyl)phenyl)-N-2-(4-(1-(2-methoxyethyl)piperidin-4-yl)-2,5-dimethyl-2,3-dihydrobenzofuran-7-yl)pyrimidine-2,4-diamine]
The IC50 of the first is 1.6-fold lower: 46.6 nM for the first, 74.5 nM for the second. The first is the more potent here.

Compared with `Cc1cc(Nc2ncc(Cl)c(Nc3ccccc3S(=O)(=O)C(C)C)n2)c2c(c1C1CCN(CCS(C)(=O)=O)CC1)C[C@H](C)O2` [Example 29], `Cc1cc(Nc2ncc(Cl)c(Nc3ccccc3S(=O)(=O)C(C)C)n2)c2c(c1C1CCN(CCS(C)(=O)=O)CC1)C[C@@H](C)O2` [Example 30] is 3.7-fold lower in IC50: 64.7 nM for the first, 17.4 nM for the second.
